Experimental findings from EP2970215B1, “PYRROLIDINE DERIVATIVES, PHARMACEUTICAL COMPOSITIONS CONTAINING THEM, AND THEIR USE IN THERAPY” (AbbVie Deutschland GmbH & Co. KG, priority 2013, dated 2014) are described below.

What is called pKi is the negative decadic logarithm of the Ki, by convention in mol/L.

pKi: −log10 of the molar value.

The target of the first experiment is T1, human GlyT1c transporter (Homo sapiens, UniProt P48067).
T1 construct: expressed in transfected cells; host or cells: CHO cells (recombinant; line hGlyT1c_5_CHO is named for the uptake assay)
T1 sequence (P48067 1-706): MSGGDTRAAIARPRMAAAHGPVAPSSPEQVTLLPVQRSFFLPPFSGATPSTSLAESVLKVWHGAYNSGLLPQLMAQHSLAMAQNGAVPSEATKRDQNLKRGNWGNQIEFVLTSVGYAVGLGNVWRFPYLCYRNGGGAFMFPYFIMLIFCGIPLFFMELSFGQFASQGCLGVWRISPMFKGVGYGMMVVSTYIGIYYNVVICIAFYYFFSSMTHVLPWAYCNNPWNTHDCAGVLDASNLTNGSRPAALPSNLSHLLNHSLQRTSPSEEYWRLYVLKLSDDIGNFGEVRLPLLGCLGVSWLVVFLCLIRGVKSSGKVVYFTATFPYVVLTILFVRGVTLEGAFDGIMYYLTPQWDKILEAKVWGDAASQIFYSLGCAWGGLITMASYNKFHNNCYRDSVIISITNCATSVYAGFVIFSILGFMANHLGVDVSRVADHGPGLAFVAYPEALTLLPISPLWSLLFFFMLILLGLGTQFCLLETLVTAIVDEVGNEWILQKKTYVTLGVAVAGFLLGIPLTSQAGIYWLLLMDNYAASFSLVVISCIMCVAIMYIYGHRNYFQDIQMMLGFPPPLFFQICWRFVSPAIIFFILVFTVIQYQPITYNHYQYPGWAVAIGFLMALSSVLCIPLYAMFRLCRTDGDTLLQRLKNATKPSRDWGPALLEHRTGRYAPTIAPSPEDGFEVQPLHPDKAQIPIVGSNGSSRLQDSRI
Briefly: Radioligand binding assay using recombinant CHO cell membranes expressing human GlyT1. Particulars: radioligand binding to human GlyT1c transporter-expressing membranes. The text has this:
2. Radioligand binding assays using recombinant CHO cell membranes expressing human GlyT1: […]
On to `CC(C)CO[C@@H]1CN(S(=O)(=O)c2cn(C)cn2)C[C@H]1Nc1cccc(Cl)c1` (relative stereo) [Example 412, Trans-N-(3-chlorophenyl)-1-[(1-methyl-1H-imidazol-4-yl)sulfonyl]-4-(2-methylpropoxy)pyrrolidin-3-amine], for which the pKi was not below 6.00.
The same measure, in the same setting: for `Cn1cnc(S(=O)(=O)N2C[C@@H](Nc3ccc(C#N)cc3)[C@H](c3ccccc3)C2)c1` (relative stereo) [Example 52, 4-({trans-1-[(1-methyl-1H-imidazol-4-yl)sulfonyl]-4-phenylpyrrolidin-3-yl}amino)benzonitrile] the value was not below 5.00; for `CCC(C)C(C)CN[C@H]1CN(S(=O)(=O)c2cn(C)cn2)C[C@@H]1c1ccccc1` (stereo partly drawn) [Example 561, (3R,4S)-N-(2,3-dimethylpentyl)-1-[(1-methyl-1H-imidazol-4-yl)sulfonyl]-4-phenylpyrrolidin-3-amine], not below 6.00; for `Cn1cnc(S(=O)(=O)N2C[C@H](NCc3cc(Cl)ccc3OC(F)F)[C@@H](c3ccccc3)C2)c1` [Example 569, (3R,4S)-N-[5-chloro-2-(difluoromethoxy)benzyl]-1-[(1-methyl-1H-imidazol-4-yl)sulfonyl]-4-phenylpyrrolidin-3-amine], not below 6.00.
On the same count and under the same terms, for `Cn1cnc(S(=O)(=O)N2C[C@@H](Nc3ccc(F)c(Cl)c3)[C@H](c3cccc(F)c3)C2)c1` (relative stereo) [Example 194, trans-N-(3-chloro-4-fluorophenyl)-4-(3-fluorophenyl)-1-[(1-methyl-1H-imidazol-4-yl)sulfonyl]pyrrolidin-3-amine] the value was not below 7.00; for `Cn1cnc(S(=O)(=O)N2C[C@H](Nc3ccc(F)c(-c4cncnc4)c3)[C@@H](c3ccc(F)cc3)C2)c1` [Example 749, (3R,4S)-4-(4-fluorophenyl)-N-[4-fluoro-3-(pyrimidin-5-yl)phenyl]-1-[(1-methyl-1H-imidazol-4-yl)sulfonyl]pyrrolidin-3-amine], not below 8.00.
On to `Cn1cnc(S(=O)(=O)N2C[C@@H](Nc3ccc(Cl)c(OC(F)(F)F)c3)[C@H](c3ccc(F)cc3)C2)c1` (relative stereo) [Example 306, trans-N-[4-chloro-3-(trifluoromethoxy)phenyl]-4-(4-fluorophenyl)-1-[(1-methyl-1H-imidazol-4-yl)sulfonyl]pyrrolidin-3-amine], for which the pKi is not below 7.00.
Still for that read-out and setting: the figure for `Cc1ccc(CN[C@@H]2CN(S(=O)(=O)c3cn(C)cn3)C[C@H]2c2ccc(F)cc2)cc1` (relative stereo) [Example 155, trans-4-(4-fluorophenyl)-N-(4-methylbenzyl)-1-[(1-methyl-1H-imidazol-4-yl)sulfonyl]pyrrolidin-3-amine] is not below 7.00.
The same measure, in the same setting: for `Cn1cnc(S(=O)(=O)N2C[C@@H](NCc3ccc(C(F)(F)F)cc3)[C@H](c3ccc(F)cc3)C2)c1` (relative stereo) [Example 267, trans-4-(4-fluorophenyl)-1-[(1-methyl-1H-imidazol-4-yl)sulfonyl]-N-[4-(trifluoromethyl)benzyl]pyrrolidin-3-amine] the value was not below 8.00; for `CC(C)c1cccc(N[C@@H]2CN(S(=O)(=O)c3cn(C)cn3)C[C@H]2c2ccccc2)c1` (relative stereo) [Example 220, trans-1-[(1-methyl-1H-imidazol-4-yl)sulfonyl]-4-phenyl-N-[3-(propan-2-yl)phenyl]pyrrolidin-3-amine], not below 8.00.

The experiment is the same for the next values; noted with them: radioligand binding, recombinant CHO cell membranes expressing human GlyT1c.
As for `Cn1cnc(S(=O)(=O)N2C[C@@H](Nc3ccc(F)c(C(F)(F)F)c3)[C@H](C3CCOC3)C2)c1` (relative stereo) [Example 832, trans-N-[4-fluoro-3-(trifluoromethyl)phenyl]-1-[(1-methyl-1H-imidazol-4-yl)sulfonyl]-4-(tetrahydrofuran-3-yl)pyrrolidin-3-amine], the pKi is not below 6.00.
